A short description of assay [1]: Rat isogeneic lung transplantation: ischemia-reperfusion injury after lung preservation. It counts as in vivo, Lewis rats. As to conditions: lung preservation solution containing 300 µM GSSSG, six hours at 4°C, an hour after the reperfusion, vs control group. As to the method: In the GSSSG group (n=3), ET-TU solution containing GSSSG was used as the lung preservation solution. The GSSSG concentration was 300 µM, at which GSSSG could be mixed into EP-TU while maintaining pH 7 in a preliminary experiment. In the control group (n=3), ET-TU solution was used as it was as the lung preservation solution. As the rats, Lewis rats (male, 13-18 weeks, 275-350 g) were used both as the donors and the recipients.
The left lung of a donor was preserved for six hours at 4°C using the lung preservation solution (EP-TU) and transplanted into the left lung of a recipient rat. After reperfusion for an hour after the lung transplantation, the right pulmonary hilum (pulmonary artery and vein/bronchus) was blocked, and the degree of ischemia-reperfusion injury of the left lung was evaluated. As indicators for ischemia-reperfusion injury, the weight gain of the grafted lung (weight after transplantation - weight before transplantation) and the arterial oxygen tension (PaO2) after blocking the right pulmonary hilum were used.

The test system of the next assay is TNFα. Description: RT-PCR gene expression of inflammatory cytokines in lung tissue after IRI. It counts as in vivo, C57BL/6J mice. As to conditions: lung tissue after the IRI; GSSSG administration group vs control; FIG. 2. How it is done: (§1) An intervention group (N = 4) in which 500 µL of the GSSSG solution was intraperitoneally administered to C57BL/6J mice (22 months old, male) an hour before pulmonary hilum clamping surgery and a control group (N = 4) in which 500 µL of normal saline solution (NSS) was intraperitoneally administered were set. The pulmonary hilum structure was clamped together for 60 minutes, and the IRI was evaluated an hour and a day after releasing clamping.
(§2) The inflammation due to the IRI was evaluated with gene expression of inflammatory cytokines in lung tissue. The wet to dry weight ratios were evaluated with N = 4 in each group, and the other items were evaluated with N = 5-6 in each group.

Another assay has as its system IL1b. The assay is described as above. Type of assay: in vivo, C57BL/6J mice. The note with it: lung tissue after the IRI; GSSSG administration group vs control; FIG. 2. How it is done:
as §1, §2

The subject of another assay is IL10. The description is as above. It counts as in vivo, C57BL/6J mice. As to conditions: lung tissue after the IRI; GSSSG administration group vs control; FIG. 2. How it is done:
as §1, §2

For another assay, the system named is IL6. The description is as above. It counts as in vivo, C57BL/6J mice. The note with it: lung tissue after the IRI; GSSSG administration group vs control; FIG. 2. As to the method: as §1, §2
The test system of another assay is HeLa cells. Description: Mitochondrial membrane potential, JC-10 staining. It counts as cell-based. The note with it: GSSSG added to medium at 1 µM, 10 µM and 100 µM; 24 hours; even at a low concentration; FIG. 3. How it is done: HeLa cells were cultured in DMEM (low glucose) medium containing 10% FBS, and GSSSG was added to the medium at different concentrations (1 µM, 10 µM and 100 µM). The cells were stained with JC-10, which is a reagent for detecting mitochondrial membrane potential, after 24 hours and observed with a confocal microscope, and the fluorescent intensities were measured with a plate reader.

Assay [2] is described as follows: Mouse lung ischemia-reperfusion injury (pulmonary hilum clamping): physiological and histopathological evaluation of pulmonary edema. It counts as in vivo, C57BL/6J mice. How it is done: GSSSG (MW 644) was dissolved in 0.1 M HCl to 25 mM GSSSG. Next, 20 µL of 25 mM GSSSG was added to 50 µL of 10x PBS and 430 µL of DW, and thus 500 µL of GSSSG solution (1 mM, 322 µg GSSSG) was adjusted in the end.
as §1
The wet to dry weight ratios were measured as physiological evaluation of pulmonary edema due to the IRI (N = 4 in each group).
The alveolar edema was scored, and the edema around the pulmonary arteries was quantified as histopathological evaluation of pulmonary edema due to the IRI (N = 6 in each group). The scoring was conducted according to the criteria below, and an average of 10 fields was calculated for each mouse. Regarding the edema around the pulmonary arteries, three to five pulmonary arteries per mouse were extracted, and an average of the area ratios of the pulmonary artery and the edema around the artery was calculated.
• 0 = no finding • 1 = finding in 1-25% • 2 = finding in 26-50% • 3 = finding in 51-75% • 4 = finding in 76-100%

Take `N[C@@H](CCC(=O)N[C@@H](CSSSC[C@H](NC(=O)CC[C@H](N)C(=O)O)C(=O)NCC(=O)O)C(=O)NCC(=O)O)C(=O)O` [GSSSG, glutathione trisulfide]: the “arterial oxygen tension (PaO2) after blocking the right pulmonary hilum” value in assay [1] (FIG. 10A) is “improved”. The “weight gain of the grafted lung” value in assay [1] (FIG. 10B) is reported as “decreased”. The “gene expression of TNFα” value with TNFα was “no difference was observed”. For the same compound, the “gene expression of IL1b” value in the assay on IL1b was “no difference was observed”. Besides, the “gene expression of IL10” value in the assay with IL10 is listed as “decreased with a significance”. The “gene expression of IL6” value in the assay on IL6 is recorded as “decreased with a significance”. Also, in the assay with HeLa cells, the mitochondrial membrane potential entry is on record as “increased with a significance”. Besides, the “edema around the pulmonary arteries” value in assay [2] (500 µL GSSSG solution (1 mM) intraperitoneally an hour before clamping, area ratio of pulmonary artery and edema around it, vs control group, FIG. 1c) is given as “relief of pulmonary edema was observed”. For the same compound, in assay [2] (500 µL GSSSG solution (1 mM) intraperitoneally an hour before clamping, histopathological evaluation, vs control group, FIG. 1b), the “score of alveolar edema” value is listed as “relief of pulmonary edema was observed”. Further, the “wet to dry weight ratio” value in assay [2] (500 µL GSSSG solution (1 mM, 322 µg) intraperitoneally an hour before 60 min pulmonary hilum clamping, 22 months old male mice, an hour and a day after the IRI, vs control group (NSS), FIG. 1a) is given as “decreased with a significance”.

Source of the values: patent EP4582094A1, “ISCHEMIA-REPERFUSION INJURY INHIBITOR” (Tohoku University, priority 2022, dated 2024).
